Experimental data as given in patent publication US20250101034A1, “COMPOSITIONS USEFUL FOR MODULATING SPLICING” (SKYHAWK THERAPEUTICS, INC., priority 2021, published 2025).

Experiments:
[1] = test system: ATXN3 transcripts containing exon 4 (E4E5); assay: ATXN3 quantitative splicing assay (qPCR, SK-N-MC cells); format: cell-based; conditions: Homo sapiens, 24 h treatment, qPCR E4E5 primers/probe, read-out: ATXN3 Potency - Splicing E4E5 IC50
Summary of the method: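 SK-N-MC cells treated 24 h with compound (30 μM to 0.6 nM, 0.3% DMSO) 24 h after plating; lysates reverse-transcribed and analysed by TaqMan qPCR. E4E5 primers/probe detect exon 4–containing transcripts; E8E9 measures total ATXN3, alongside exon 4–skipped transcript detection.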

[2] = test system: total ATXN3 protein; assay: ATXN3 total protein assay (MSD, SK-N-MC cells); format: cell-based, Human; conditions: 48 hours incubation, read-out: ATXN3 Potency - Protein IC50
Summary of the method: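 SK-N-MC human neuroblastoma cells treated with compound (30 μM to 0.6 nM) for 48 h, then lysed with protease inhibitors. Total ATXN3 measured by MSD sandwich immunoassay (mouse capture, rabbit detection antibodies, anti-rabbit MSD-ST secondary), quantified against recombinant ATXN3 standards.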

| SMILES | IC50 [1] | IC50 [2] |
| --- | --- | --- |
| COC[C@H](N)Cc1sc2c(NCc3cccs3)cnnc2c1Br [Compound 136, 6-[(2R)-2-amino-3-methoxypropyl]-7-bromo-N-[(thiophen-2-yl)methyl]thieno[3,2-c]pyridazin-4-amine] | 0.101 to 0.5 µM | 0.101 to 0.5 µM |
| Cc1c(C[C@H](C)N)sc2c(NCc3ccc(Br)s3)cnnc12 [Compound 62, 6-[(2S)-2-aminopropyl]-N-[(5-bromothiophen-2-yl)methyl]-7-methylthieno[3,2-c]pyridazin-4-amine] | 5 to 10 µM | 5 to 10 µM |
| Cc1c(C[C@H](C)N)sc2c(NC(=O)c3cccs3)cnnc12 [Compound 51, N-{6-[(2S)-2-aminopropyl]-7-methylthieno[3,2-c]pyridazin-4-yl}thiophene-2-carboxamide] | 10 to 40 µM | 10 to 40 µM |
| Cc1c(CC(C)CN)sc2c(NCc3cccs3)cnnc12 (stereo not drawn) [Compound 104, 6-(3-amino-2-methylpropyl)-7-methyl-N-[(thiophen-2-yl)methyl]thieno[3,2-c]pyridazin-4-amine] | 10 to 40 µM | 10 to 40 µM |
| Cc1c(C[C@@H](N)CC2CC2)sc2c(NCc3ccco3)cnnc12 [Compound 52, 6-[(2S)-2-amino-3-cyclopropylpropyl]-N-[(furan-2-yl)methyl]-7-methylthieno[3,2-c]pyridazin-4-amine] | 0.501 to 5 µM | 0.501 to 5 µM |
| Clc1csc2c(NCc3cccs3)cnnc12 [Compound 67, 7-chloro-N-[(thiophen-2-yl)methyl]thieno[3,2-c]pyridazin-4-amine] | 10 to 40 µM | 10 to 40 µM |
| Cc1c(C[C@H](C)N)sc2c(NCn3cccn3)cnnc12 [Compound 15, 6-[(2S)-2-aminopropyl]-7-methyl-N-[(1H-pyrazol-1-yl)methyl]thieno[3,2-c]pyridazin-4-amine] | 0.501 to 5 µM | 0.501 to 5 µM |
| COc1csc(CNc2cnnc3c(C)c(C[C@H](C)N)sc23)c1 [Compound 75, 6-[(2S)-2-aminopropyl]-N-[(4-methoxythiophen-2-yl)methyl]-7-methylthieno[3,2-c]pyridazin-4-amine] | 10 to 40 µM | 10 to 40 µM |
| Cc1c(CC2CNC2)sc2c(NCc3cccs3)cnnc12 [Compound 73, 6-[(azetidin-3-yl)methyl]-7-methyl-N-[(thiophen-2-yl)methyl]thieno[3,2-c]pyridazin-4-amine] | 10 to 40 µM | 10 to 40 µM |
| Cc1c(C[C@H](C)N)sc2c(NCc3ccsc3F)cnnc12 [Compound 17, 6-[(2S)-2-aminopropyl]-N-[(2-fluorothiophen-3-y1)methyl]-7-methylthieno[3,2-c]pyridazin-4-amine] | 5 to 10 µM | 10 to 40 µM |
| C[C@H](N)Cc1cc2nncc(NCc3cccs3)c2s1 [Compound 39, 6-[(2S)-2-aminopropyl]-N-[(thiophen-2-yl)methyl]thieno[3,2-c]pyridazin-4-amine] | 0.501 to 5 µM | 0.501 to 5 µM |
| C=C(C)c1sc2c(NCc3cccs3)cnnc2c1C [Compound 37, 7-methyl-6-(prop-1-en-2-yl)-N-(thiophen-2-ylmethyl)thieno[3,2-c]pyridazin-4-amine] | 10 to 40 µM | 10 to 40 µM |
| Cc1c([C@@H](C)[C@H](C)N)sc2c(NCc3cccs3)cnnc12 [Compound 25] | 10 to 40 µM | 10 to 40 µM |
| Cc1c(C[C@@H](N)[C@@H](C)F)sc2c(NCc3cccs3)cnnc12 [Compound 111, 6-[(2R,3R)-2-amino-3-fluorobutyl]-7-methyl-N-[(thiophen-2-yl)methyl]thieno[3,2-c]pyridazin-4-amine] | 0.501 to 5 µM | 0.501 to 5 µM |
| C[C@H](N)C(F)(F)c1sc2c(NCc3cccs3)cnnc2c1Br [Compound 140, 6-[(2S)-2-amino-1,1-difluoropropyl]-7-bromo-N-[(thiophen-2-yl)methyl]thieno[3,2-c]pyridazin-4-amine] | 0.501 to 5 µM | 0.501 to 5 µM |
| C[C@H](N)Cc1sc2c(N[C@H](C)c3cccs3)cnnc2c1Br [Compound 113, 6-[(2S)-2-aminopropyl]-7-bromo-N-[(1R)-1-(thiophen-2-yl)ethyl]thieno[3,2-c]pyridazin-4-amine] | 10 to 40 µM | 10 to 40 µM |
| Cc1c(C[C@@H]2CCN2)sc2c(NCc3cccs3)cnnc12 [Compound 71, 6-{[(2S)-azetidin-2-y1]methyl}-7-methyl-N-[(thiophen-2-yl)methyl]thieno[3,2-c]pyridazin-4-amine] | 10 to 40 µM | 10 to 40 µM |
| Cc1c([C@@H](O)[C@H](C)N)sc2c(NCc3cccs3)cnnc12 (single isomer, unassigned) [Compound 42] | 5 to 10 µM | 5 to 10 µM |
